Like-named read-outs stand apart in the source and are kept apart here.
Columns and labels:
HL60 APL cells [1] = conditions: MTT, 48 h, read-out: Antiproliferative Activity (IC50 ± SD) HL60, cited from earlier work
[2] = test system: HeLa epithelial cervix carcinoma; assay: Antiproliferative activity, MTT; type: cell-based; conditions: Homo sapiens, 48 h treatment, read-out: Antiproliferative Activity (IC50 ± SD) HeLa
Description: (§1) U937 histiocytic lymphoma, HL60 acute promyelocytic leukemia, H1299 lung adenocarcinoma, MCF7 breast carcinoma, HT1080 fibrosarcoma, M14 melanoma, HeLa epithelial cervix carcinoma and peripheral blood B lymphocyte AHH1 human cell lines were obtained from the Deutsche Sammlung für Mikroorganismen and Zellkulturen (DSZM, Braunschweig, Germany) and were maintained in RPMI 1640 medium contained 10% fetal bovine serum (FBS), 2 mM L-glutamine, and antibiotics in a humidified atmosphere with 5% CO2 at 37 °C. HCT116 (ATCC, VA, USA) cells were propagated in Dulbecco’s modified Eagle medium (DMEM) (Euroclone, Milan, Italy) with 10% fetal bovine serum (FBS; Euroclone, Milan, Italy), 2 mM L-glutamine (Euroclone, Milan, Italy), and antibiotics (100 U/mL penicillin, 100 µg/mL streptomycin) (Euroclone, Milan, Italy). The experiments were performed with early (3–20) cell passages. Cell lines were treated with compounds at the indicated concentrations in the exponential growth phase.
(§2) Then, increasing concentrations of different compounds (ranging from 0.01 to 100 μM) were added, and cell proliferation was evaluated by a MTT assay after 48 h. Cells exposed to DMSO were used as control. The effect of compounds was evaluated using the CellTiter-Glo luminescent cell viability assay (Promega, Madison, WI, USA) according to the manufacturer’s instructions. For HCT116, 5 × 10^4 cells/well were plated in 24-well plate and treated, in duplicate, with compounds at several concentrations for 24 and 48 h of induction. After treatments, MTT solution was added for 3 h at 0.5 mg/mL, the obtained crystals were dissolved in DMSO (Sigma-Aldrich, Milan, Italy), and the absorbance was read at a wavelength of 570 nm with reader TECAN M-200. All the experiments were performed in triplicate and repeated at least three times.
(§3) IC50 values of compounds against cellular viability were determined by using nonlinear regression fitting curves with GraphPad Prism 8. The t-test used for statistical analyses was performed with GraphPad Prism 8. All the tests were one-tailed and a p-value < 0.05 was considered statistically significant.

[3] = test system: HCT116 human colorectal carcinoma; assay: Antiproliferative activity, MTT; type: cell-based; conditions: HCT-116, 48 h treatment, read-out: Antiproliferative Activity (IC50 ± SD) HCT116
Description: as §1, §2, §3

M14 human melanoma = assay: Antiproliferative activity, MTT; type: cell-based; conditions: 48 h treatment, read-out: Antiproliferative Activity (IC50 ± SD) M14
Description: as §1, §2, §3

[4] = test system: HT1080 human fibrosarcoma; assay: Antiproliferative activity, MTT; type: cell-based; conditions: HT-1080, 48 h treatment, read-out: Antiproliferative Activity (IC50 ± SD) HT1080
Description: as §1, §2, §3

[5] = test system: H1299 human non-small cell lung carcinoma; assay: Antiproliferative activity, MTT; type: cell-based; conditions: 48 h treatment, read-out: Antiproliferative Activity (IC50 ± SD) H1299
Description: as §1, §2, §3

KRAS21R G-quadruplex DNA = assay: FRET melting assay, G-quadruplex DNA; type: binding
Description: (§4) Experimental procedure for Fluorescence Resonance Energy Transfer (FRET) melting assay Oligonucleotides labeled at 5’ with FAM (6-carboxyfluorescein) as donor fluorophore and TAMRA (6 - carboxytetramethylrhodamine) at 3’ as the acceptor fluorophore were purchased from STAB VIDA (Portugal). Each oligonucleotide was initial ly diluted to 100 µM in water (Molecular Biology Reagent, Sigma). Stock solutions of 20 µM and subsequent dilutions were made with FRET buffer (60 mM KCl, potassium cacodylate, pH 7.4). Tagged oligonucleotides at 0.4 µM were annealed by heating at 90 -95 °C for 10 min, followed by slow cooling to room temperature. St ock solutions of compounds (1 mM) were prepared in 10% DMSO. Subsequent dilutions were performed using FRET buffer. Annealed DNA (50 µL) and test compound solutions (50 µL) were distributed across 96-well RT-PCR plates (PCR-96-FLT-C, Axygen, Inc). Fluorescence readings (performed in a 7300 RT -PCR equipment from Applied Biosystems) were taken at intervals of 0.5 °C in the range 31 –95 °C, with the temperature being maintained for 30 seconds prior to each reading. Experiments were performed in triplicate. Fina l analysis of the data was carried out with GraphPad Prism v.5.0 (GraphPad Software Inc., La Jolla, CA, USA).
(§5) The advanced curve-fitting function in GraphPad Prism (nonlinear regression fit) was used for calculation of ΔTm values. Only results with fitting r2 values > 0.75 (std error < 0.25) were considered.
(§6) Table S2. Synthetic oligonucleotides used in FRET experiments.

F21T G-quadruplex DNA = assay: FRET melting assay, G-quadruplex DNA; type: binding
Description: as §4, §5, §6

U937 AML cells [6] = conditions: MTT, 48 h, read-out: Antiproliferative Activity (IC50 ± SD) U937, cited from earlier work
[7] = test system: methylated UCHL1 promoter (pUCHL1) in HCT116 cells; assay: UCHL1 promoter demethylation assay (EGFP induction, FACS); type: cell-based, human; conditions: five days
Description: The assay was performed as described in [29]. Briefly, human colon cancer HCT116 (ATCC, VA, USA) cells were grown in Dulbecco’s Modified Eagle Medium (DMEM; Euroclone, Milan, Italy) supplemented with 10% fetal bovine serum (FBS; Euroclone, Milan, Italy), 2 mM L-glutamine (Euroclone), and antibiotics (100 U/mL penicillin, 100 µg/mL streptomycin) (Euroclone). The pUMLIEP vector (composed by MetLuc-IRES-EGFP construct upon the control of the ubiquitin carboxyl-terminal hydrolase L1 (UCHL1)) was linearized and methylated by with ClaI and SssI-methylase enzymes (New England Biolabs, Milan, Italy). After, methylated pUMLIEP was transfected into HCT116 cells following the protocol described in [30]. […] On day 5, cells were observed under by a fluorescent microscope (Cytation 5 Cell Imaging Multi-Mode Reader (BioTeK Milan, Italy) and BD Accuri flow cytometers. Nuclei were counterstained with DAPI (10 µg/mL, Invitrogen, Tournai, Belgium).

[8] = test system: luciferase reporter under methylated CMV promoter in KG-1 leukemia cells; assay: CMV-luc assay in KG-1 cells; type: cell-based; conditions: KG-1 CMV-luc, vs DMSO
Description: The assay was carried out as described by Rilova et al.. The KG-1 cell line was stably transfected with the luciferase firefly (Luc^+ from pGL3 by Promega, Madison, WI, USA) reporter gene under the control of a methylated CMV promoter (from pEGFP-N1 by Clontech) and selected for the maintenance of the methylation of CMV and luciferase expression silencing (KG-1 CMV-luc). The stably integrated KG-1 CMV-luc cells are cultivated in RPMI-1640 medium (Lonza, Strasbourg, France), supplemented with 10% FCS (Lonza, Strasbourg, France) and 0.5 mg/mL of geneticin (Sigma-Aldrich, Saint-Quentin Fallavier, France), under 5% CO2, at 37 °C and seeded at 20,000 cells per well in 96-well plates. After 5 or 24 h of incubation in the presence of compounds or the solvent DMSO, the induction of the promoter is measured by quantification of luciferase with the Brite-lite assay system (PerkinElmer, Villebon-sur-Yvette, France) according to the manufacturer’s protocol. The luminescence is measured on an EnVision Multilabel Plate Reader (PerkinElmer, Villebon-sur-Yvette, France), and the data are expressed as fold induction compared to DMSO control. The mean of 2–4 experiments and its standard error are reported.

human DNMT1 (hDNMT1) = target: T1, human DNMT1 (hDNMT1) (Homo sapiens, UniProt P26358); assay: DNMT1 assay ([methyl-3H]SAM, Flashplate); type: biochemical; conditions: mean of at least two independent experiments; read-out: Enzyme Inhibition (EC50 ± SD) hDNMT1
T1 construct: His; made in house
Description: His-DNMT1 (182 kDa, human) was cloned, expressed, and purified as described by Lee et al.. The DNMT1 assay was performed according to Gros et al.. […] The reaction was incubated 2 h at 37 °C, then 8 µL of the solution are transferred into a streptavidin 96-well scintillant coated Flashplate containing 190 µL of 20 mM SAH in 50 mM Tris–HCl (pH 7.4). The Flashplate is agitated for 1 h at room temperature and washed. The plate is read with TopCount (PerkinElmer). In this assay, the negative and positive controls were defined as wells without enzyme and wells with only DMSO, respectively.

[9] = target: T2, C-terminal catalytic domain of human DNMT3A (hDNMT3A) (Homo sapiens, UniProt Q9Y6K1); assay: DNMT3A restriction-based fluorescence assay; type: biochemical; conditions: mean of at least two independent experiments; read-out: Enzyme Inhibition (EC50 ± SD) hDNMT3A
T2 construct: the C-terminal catalytic domain of human DNMT3A (hDNMT3A)
Description: DNMT3A enzyme inhibition was adapted from the restriction-based fluorescence assay protocol described in Ceccaldi et al.. Briefly, a biotin-labelled oligonucleotide at the 5’ end is hybridized to his complementary strand labelled at the 3’ end with 6-carboxyfluorescein. The DNA duplex containing only one single CpG site overlapping with a restriction site of a methylation sensitive restriction enzyme is transferred in the wells coated with avidin. The methylation reaction is performed by adding human C-terminal DNMT3A at the final concentration of 4 ng/µL in a total volume of 50 µL in the presence of the inhibitors at various concentrations and the co-substrate SAM at the final concentration of 20 µM. The plate was incubated for 1 h at 37 °C, washed, and added with the methylation sensitive restriction enzyme HpyCH4IV, incubated for 1 h further at 37 °C, washed and the fluorescence measured with a PerkinElmer Envision Multilabel Plate Reader. The data are expressed as percentage of inhibition vs. log concentration (M). Data are normalized referring to the “restriction control” (wells coated with labelled duplex not treated nor exposed to DNMT3A, but only cleaved by HpyCH4IV) as the maximum of inhibition (100%) and to the “DMSO control” (wells coated with labelled duplex but treated just with 0.1% DMSO exposed to DNMT3A and then to HpyCH4IV) as the minimum of inhibition (0%; total methylation).

HL60 APL cells [10] = assay: Antiproliferative activity, MTT; type: cell-based; conditions: Homo sapiens, HL-60, 48 h treatment, read-out: Antiproliferative Activity (IC50 ± SD) HL60
Description: as §1, §2, §3

U937 AML cells [11] = assay: Antiproliferative activity, MTT; type: cell-based; conditions: Homo sapiens, U-937, 48 h treatment, read-out: Antiproliferative Activity (IC50 ± SD) U937
Description: as §1, §2, §3

T1 sequence (P26358 whole entry): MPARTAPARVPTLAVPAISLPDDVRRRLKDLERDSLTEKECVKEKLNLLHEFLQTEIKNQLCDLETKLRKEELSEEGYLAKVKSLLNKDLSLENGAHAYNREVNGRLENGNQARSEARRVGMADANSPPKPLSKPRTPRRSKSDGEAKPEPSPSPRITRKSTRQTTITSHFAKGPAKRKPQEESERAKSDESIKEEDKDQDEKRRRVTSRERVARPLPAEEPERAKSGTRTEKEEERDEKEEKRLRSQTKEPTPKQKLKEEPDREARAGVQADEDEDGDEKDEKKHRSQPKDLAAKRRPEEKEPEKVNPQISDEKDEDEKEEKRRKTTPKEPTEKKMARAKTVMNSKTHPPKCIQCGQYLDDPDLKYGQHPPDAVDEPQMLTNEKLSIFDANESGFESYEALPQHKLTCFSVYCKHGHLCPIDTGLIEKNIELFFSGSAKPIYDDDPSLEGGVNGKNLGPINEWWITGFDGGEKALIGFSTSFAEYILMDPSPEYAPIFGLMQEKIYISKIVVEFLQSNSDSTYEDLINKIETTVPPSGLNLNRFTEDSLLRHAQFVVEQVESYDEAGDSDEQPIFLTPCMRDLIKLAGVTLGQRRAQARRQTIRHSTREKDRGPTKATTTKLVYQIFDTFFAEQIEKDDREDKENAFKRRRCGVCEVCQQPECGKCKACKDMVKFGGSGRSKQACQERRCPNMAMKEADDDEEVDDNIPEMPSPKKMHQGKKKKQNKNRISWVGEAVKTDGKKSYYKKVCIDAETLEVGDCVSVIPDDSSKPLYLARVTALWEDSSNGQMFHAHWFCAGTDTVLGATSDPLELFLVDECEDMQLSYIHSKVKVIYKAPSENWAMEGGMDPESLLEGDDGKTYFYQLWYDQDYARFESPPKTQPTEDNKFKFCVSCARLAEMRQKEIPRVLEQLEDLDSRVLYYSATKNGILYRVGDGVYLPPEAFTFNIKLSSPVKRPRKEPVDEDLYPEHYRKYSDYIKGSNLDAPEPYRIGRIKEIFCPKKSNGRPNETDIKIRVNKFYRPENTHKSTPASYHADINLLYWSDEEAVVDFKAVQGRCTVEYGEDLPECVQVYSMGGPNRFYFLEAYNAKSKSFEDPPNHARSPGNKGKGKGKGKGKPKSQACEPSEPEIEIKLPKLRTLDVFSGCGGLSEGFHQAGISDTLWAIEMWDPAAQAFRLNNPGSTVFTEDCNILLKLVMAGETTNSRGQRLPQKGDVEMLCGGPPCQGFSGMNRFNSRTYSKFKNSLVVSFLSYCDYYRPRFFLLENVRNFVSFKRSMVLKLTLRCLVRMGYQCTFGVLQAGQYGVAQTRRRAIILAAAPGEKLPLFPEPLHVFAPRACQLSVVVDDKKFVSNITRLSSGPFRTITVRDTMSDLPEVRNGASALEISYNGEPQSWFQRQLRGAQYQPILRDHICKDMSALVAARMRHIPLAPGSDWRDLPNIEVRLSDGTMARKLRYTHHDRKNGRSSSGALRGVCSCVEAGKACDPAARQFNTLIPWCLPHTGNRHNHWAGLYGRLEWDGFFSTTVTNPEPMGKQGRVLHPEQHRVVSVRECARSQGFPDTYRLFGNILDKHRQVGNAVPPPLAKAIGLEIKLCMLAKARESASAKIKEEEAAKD
T2 sequence (Q9Y6K1 634-912 limits assumed): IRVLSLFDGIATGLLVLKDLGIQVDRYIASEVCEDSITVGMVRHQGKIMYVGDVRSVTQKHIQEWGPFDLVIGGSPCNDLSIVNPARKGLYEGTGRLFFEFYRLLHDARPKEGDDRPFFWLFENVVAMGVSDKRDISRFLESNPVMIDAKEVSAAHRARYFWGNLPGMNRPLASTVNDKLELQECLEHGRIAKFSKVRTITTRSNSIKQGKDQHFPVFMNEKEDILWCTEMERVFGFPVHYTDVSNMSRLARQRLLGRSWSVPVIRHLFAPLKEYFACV

SMILES: O=C(Nc1ccc(Nc2ccnc3ccccc23)cc1)c1ccc(Nc2ccnc3ccccc23)cc1 [Compound 2, reference compound]
- IC50 (HL60 APL cells [1]; reference compounds): 65 ± 8.1 µM
- IC50 [2]: 52 ± 5.7 µM
- IC50 [3]: 13.3 ± 2.1 µM
- IC50 (M14 human melanoma): 80 ± 9.1 µM
- IC50 [4]: 17 ± 2.1 µM
- IC50 [5]: 11.4 ± 1.8 µM
- IC50 ([5]; Homo sapiens, NCI-H1299, 48 h): 11 µM
- KRAS ∆Tm (KRAS21R G-quadruplex DNA; 5 µM): 1.0 ºC
- KRAS ∆Tm (KRAS21R G-quadruplex DNA; 10 µM): 9.6 ºC
- F21T ∆Tm (F21T G-quadruplex DNA; 5 µM): 0.6 ºC
- F21T ∆Tm (F21T G-quadruplex DNA; 10 µM): 6.2 ºC
- IC50 (U937 AML cells [6]; reference compounds): 6.6 ± 0.9 µM

SMILES: Cc1cc(Nc2ccc(NC(=O)c3ccc(Nc4cc(C)nc(N)n4)cc3)cc2)nc(N)n1 [Compound 3]
- IC50 (HL60 APL cells [1]; reference compounds): 119 ± 12.9 µM
- IC50 (U937 AML cells [6]; reference compounds): 60 ± 8.2 µM

SMILES: Cc1cc(Nc2ccc(NC(=O)c3ccc(Nc4ccnc5ccccc45)cc3)cc2)nc(N)n1 [SGI-1027, reference compound]
- IC50 (HL60 APL cells [1]; reference compounds): 0.7 ± 0.16 µM
- pUCHL1 demethylation, EGFP-positive cells (FACS R1) ([7]; HCT116, 0.5 µM): 32.9%
- KRAS ∆Tm (KRAS21R G-quadruplex DNA; 5 µM): 6.7 ºC
- KRAS ∆Tm (KRAS21R G-quadruplex DNA; 10 µM): 8.7 ºC
- F21T ∆Tm (F21T G-quadruplex DNA; 5 µM): 1.9 ºC
- F21T ∆Tm (F21T G-quadruplex DNA; 10 µM): 7.2 ºC
- IC50 (U937 AML cells [6]; reference compounds): 0.7 ± 0.08 µM

SMILES: Nc1ncn([C@H]2C[C@H](O)[C@@H](CO)O2)c(=O)n1 [DAC, 5-aza-2′-deoxycytidine, reference compound]
- pUCHL1 demethylation, EGFP-positive cells (FACS R1) ([7]; HCT116, 5 µM): 46.6%
- Luciferase Expression (Fold ± SD) ([8]; 0.5 µM): 18.13 ± 5.52 fold
- Luciferase Expression (Fold ± SD) ([8]; 1 µM): 19.80 ± 3.88 fold
- Luciferase Expression (Fold ± SD) ([8]; 5 µM): 23.82 ± 5.44 fold
- Luciferase Expression (Fold ± SD) ([8]; 10 µM): 20.96 ± 4.02 fold

SMILES: O=C(Nc1ccc(NC(=O)c2ccc(Nc3ccnc4ccccc34)cc2)cc1)OCc1ccccc1 [Compound 4, reference compound]
- IC50 (HL60 APL cells [1]; reference compound): 8.3 ± 1 µM
- IC50 [2]: 3.2 ± 0.5 µM
- IC50 [3]: 8.6 ± 1 µM
- IC50 (M14 human melanoma): 2.9 ± 0.4 µM
- IC50 [4]: 1.7 ± 0.2 µM
- IC50 ([5]; Homo sapiens, NCI-H1299, 48 h): 5.9 ± 0.8 µM
- KRAS ∆Tm (KRAS21R G-quadruplex DNA; 5 µM): 1 ºC
- KRAS ∆Tm (KRAS21R G-quadruplex DNA; 10 µM): 10.4 ºC
- F21T ∆Tm (F21T G-quadruplex DNA; 5 µM): 2.7 ºC
- F21T ∆Tm (F21T G-quadruplex DNA; 10 µM): 6.9 ºC
- IC50 (U937 AML cells [6]; reference compound): 2.3 ± 0.4 µM

SMILES: Cc1cc(Nc2cccc(CNC(=O)c3cccc(Nc4ccnc5ccccc45)c3)c2)nc(N)n1 [Compound 1c]
- EC50 (human DNMT1 (hDNMT1)): 35 ± 7 µM
- EC50 [9]: 31 ± 6 µM
- IC50 (HL60 APL cells [10]): 36 ± 4 µM
- IC50 (U937 AML cells [11]): 25.8 ± 3.2 µM

Reference: PMC7073229, “Novel Quinoline Compounds Active in Cancer Cells through Coupled DNA Methyltransferase Inhibition and Degradation” (Cancers, 2020)
